Assay results taken from patent US5332731A, “Cephalosporin derivatives” (Meiji Seika Kaisha, Ltd., priority 1989, dated 1994).
Values after ≈ are worked out from the molar mass of the structure shown.

Experiments:
Test in all cases: antibacterial activity, MIC by standard serial dilution method
Assay type in all cases: cell-based
[1] = system: Citrobacter freundii GN346
Excerpt: (§1) Antibacterial activity of Compounds Nos. 1, 3, 5, 7, 9, 11, 13, 15, 17, 19, 21, 23, 25, 27, 29, 31, 33, 35 and 37 indentified hereinbefore which are the particular examples of the new cephalosporin derivative of general formula (I) according to this invention and which are in the form of the free carboxylic acid was estimated by determining the minimum inhibitory concentrations (MIC., μg/ml) of these compounds against a variety of bacteria according to a standard serial dilution method.

[2] = system: Escherichia coli 255/S-1; settings: 255/S1
Excerpt: as §1

[3] = system: Enterobacter cloacae GN7471
Excerpt: as §1

[4] = system: Serratia marcescens No. 1
Excerpt: as §1

[5] = system: Proteus vulgaris GN76/C-1
Excerpt: as §1

[6] = system: Staphylococcus epidermidis ATCC14990
Excerpt: as §1

[7] = system: Klebsiella pneumoniae PCI602
Excerpt: as §1

[8] = system: Escherichia coli W3630 RGN823; settings: W3630RGN823
Excerpt: as §1

[9] = system: Escherichia coli 255
Excerpt: as §1

[10] = system: Serratia marcescens GN10857
Excerpt: as §1

[11] = system: Citrobacter freundii GN346/16
Excerpt: as §1

[12] = system: Marganella morganii 1510
Excerpt: as §1

[13] = system: Escherichia coli NIHJ JC-2; settings: NIHJJC2
Excerpt: as §1

[14] = system: Staphylococcus aureus 209P JC-1
Excerpt: as §1

[15] = system: Enterobacter hirae ATCC8043
Excerpt: as §1

[16] = system: Escherichia coli GN206
Excerpt: as §1

[17] = system: Klebsiella pneumoniae GN69
Excerpt: as §1

[18] = system: Proteus vulgaris GN76
Excerpt: as §1

[19] = system: Pseudomonas aeruginosa GN10362
Excerpt: as §1

[20] = system: Marganella morganii 1510/S-1
Excerpt: as §1

[21] = system: Entrobacter faecalis W-73
Excerpt: as §1

[22] = system: Enterobacter cloacae G-0008; settings: G0008
Excerpt: as §1

Row | Structure (SMILES) | MIC [1] [µg/mL] | MIC [2] [µg/mL] | MIC [3] [µg/mL] | MIC [4] [µg/mL] | MIC [5] [µg/mL] | MIC [6] [µg/mL] | MIC [7] [µg/mL] | MIC [8] [µg/mL] | MIC [9] [µg/mL] | MIC [10] [µg/mL] | MIC [11] [µg/mL] | MIC [12] [µg/mL] | MIC [13] [µg/mL] | MIC [14] [µg/mL] | MIC [15] [µg/mL] | MIC [16] [µg/mL] | MIC [17] [µg/mL] | MIC [18] [µg/mL] | MIC [19] [µg/mL] | MIC [20] [µg/mL] | other results
1 | CO/N=C(\C(=O)NC1C(=O)N2C(C(=O)O)=C(SCC3CCCCO3)CS[C@H]12)c1csc(N)n1 (some centres unmarked) [Compound No. 23, 7-[(Z)-2-(2-aminothiazol-4-yl)-2-methoxyiminoacetamido]-3-(tetrahydropyran-2-yl)methylthio-3-cephem-4-carboxylic acid] | > 100 | 3.13 (≈ 6.09 µM) | 100 (≈ 195 µM) | 1.56 (≈ 3.04 µM) | 1.56 (≈ 3.04 µM) | 3.13 (≈ 6.09 µM) | 3.13 (≈ 6.09 µM) | 3.13 (≈ 6.09 µM) | 50 (≈ 97.3 µM) | 50 (≈ 97.3 µM) | 6.25 (≈ 12.2 µM) | 50 (≈ 97.3 µM) | 3.13 (≈ 6.09 µM) | 3.13 (≈ 6.09 µM) | 25 (≈ 48.7 µM) | 6.25 (≈ 12.2 µM) | 1.56 (≈ 3.04 µM) | 0.39 (≈ 0.759 µM) | 100 (≈ 195 µM) | 0.78 (≈ 1.52 µM) | MIC [21]: > 100 µg/mL; MIC [22]: 3.13 µg/mL (≈ 6.09 µM)
2 | Nc1nc(/C(=N/O)C(=O)NC2C(=O)N3C(C(=O)O)=C(SCC4COCO4)CSC23)cs1 (centres unmarked) [Compound No. 35] | > 100 | 0.39 (≈ 0.8 µM) | 50 (≈ 103 µM) | 12.5 (≈ 25.6 µM) | 100 (≈ 205 µM) | 0.2 (≈ 0.41 µM) | 0.39 (≈ 0.8 µM) | 1.56 (≈ 3.2 µM) | 50 (≈ 103 µM) | > 100 | 3.13 (≈ 6.42 µM) | 50 (≈ 103 µM) | 0.39 (≈ 0.8 µM) | 0.39 (≈ 0.8 µM) | 12.5 (≈ 25.6 µM) | 12.5 (≈ 25.6 µM) | 0.05 (≈ 0.103 µM) | 12.5 (≈ 25.6 µM) | > 100 | 0.2 (≈ 0.41 µM) | MIC [21]: 12.5 µg/mL (≈ 25.6 µM); MIC [22]: 1.56 µg/mL (≈ 3.2 µM)
3 | Nc1nc(/C(=N/O)C(=O)NC2C(=O)N3C(C(=O)O)=C(SC4CCOCC4)CS[C@H]23)cs1 (some centres unmarked) [Compound No. 15, 7-[(Z)-2-(2-aminothiazol-4-yl) -2-hydroxyiminoacetamido]-3-(tetrahydropyran-4-yl)thio-3-cephem-4-carboxylic acid] | > 100 | 0.39 (≈ 0.803 µM) | 100 (≈ 206 µM) | 6.25 (≈ 12.9 µM) | 6.25 (≈ 12.9 µM) | 0.2 (≈ 0.412 µM) | 0.39 (≈ 0.803 µM) | 12.5 (≈ 25.7 µM) | 50 (≈ 103 µM) | > 100 | 6.25 (≈ 12.9 µM) | 50 (≈ 103 µM) | 0.78 (≈ 1.61 µM) | 0.2 (≈ 0.412 µM) | 6.25 (≈ 12.9 µM) | 12.5 (≈ 25.7 µM) | 0.78 (≈ 1.61 µM) | 1.56 (≈ 3.21 µM) | > 100 | 0.2 (≈ 0.412 µM) | MIC [21]: 1.56 µg/mL (≈ 3.21 µM); MIC [22]: 1.56 µg/mL (≈ 3.21 µM)
4 | CO/N=C(\C(=O)NC1C(=O)N2C(C(=O)O)=C(SCC3COCOC3)CS[C@H]12)c1csc(N)n1 (some centres unmarked) [Compound No. 33, 7-[(Z)-2-(2-aminothiazol-4-yl)-2-methoxyiminoacetamido]-3-(1,3-dioxan-5-yl)methylthio-3-cephem-4-carboxylic acid] | > 100 | 0.78 (≈ 1.51 µM) | 50 (≈ 97 µM) | 0.78 (≈ 1.51 µM) | 6.25 (≈ 12.1 µM) | 0.78 (≈ 1.51 µM) | 0.39 (≈ 0.756 µM) | 0.78 (≈ 1.51 µM) | 50 (≈ 97 µM) | 50 (≈ 97 µM) | 3.13 (≈ 6.07 µM) | 100 (≈ 194 µM) | 0.78 (≈ 1.51 µM) | 0.78 (≈ 1.51 µM) | > 100 | 6.25 (≈ 12.1 µM) | 0.1 (≈ 0.194 µM) | 0.2 (≈ 0.388 µM) | > 100 | 0.39 (≈ 0.756 µM) | MIC [21]: > 100 µg/mL; MIC [22]: 0.78 µg/mL (≈ 1.51 µM)
5 | Nc1nc(/C(=N/O)C(=O)NC2C(=O)N3C(C(=O)O)=C(SC4COCOC4)CS[C@H]23)cs1 (some centres unmarked) [Compound No. 21, 7 - [(Z) -2-(2-aminothiazol-4-yl) -2-hydroxyiminoacetamido]-3-(1,3-dioxan-5-yl)thio-3-cephem-4-carboxylic acid] | > 100 | 0.2 (≈ 0.41 µM) | 50 (≈ 103 µM) | 3.13 (≈ 6.42 µM) | 12.5 (≈ 25.6 µM) | 0.2 (≈ 0.41 µM) | 0.2 (≈ 0.41 µM) | 3.13 (≈ 6.42 µM) | 25 (≈ 51.3 µM) | > 100 | 3.13 (≈ 6.42 µM) | 12.5 (≈ 25.6 µM) | 0.2 (≈ 0.41 µM) | 0.2 (≈ 0.41 µM) | 3.13 (≈ 6.42 µM) | 6.25 (≈ 12.8 µM) | 0.2 (≈ 0.41 µM) | 0.78 (≈ 1.6 µM) | > 100 | 0.1 (≈ 0.205 µM) | MIC [21]: 12.5 µg/mL (≈ 25.6 µM); MIC [22]: 0.78 µg/mL (≈ 1.6 µM)
